Test results taken from PubChem BioAssay (NCI).
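These data come from cells grown in 96-well plates and exposed to compound for 48 hours at five concentrations. TGI marks complete inhibition of growth.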

Key:
Assay in all cases: NCI tumour cell line growth inhibition, 48 h
[1] = tested on: 786-0 renal
[2] = tested on: A498 renal
[3] = tested on: A549 NSCLC
[4] = tested on: ACHN renal
[5] = tested on: BT-549 breast
[6] = tested on: CAKI-1 renal
[7] = tested on: CCRF-CEM leukemia
[8] = tested on: COLO 205 colon
[9] = tested on: DLD-1 colon
[10] = tested on: DMS 114 small cell lung
[11] = tested on: DMS 273 small cell lung
[12] = tested on: DU-145 prostate
[13] = tested on: EKVX NSCLC
[14] = tested on: HCC-2998 colon
[15] = tested on: HCT-116 colon
[16] = tested on: HCT-15 colon
[17] = tested on: HL-60(TB) leukemia
[18] = tested on: HOP-18 NSCLC
[19] = tested on: HOP-62 NSCLC
[20] = tested on: HOP-92 NSCLC
[21] = tested on: HS 578T breast
[22] = tested on: HT29 colon
[23] = tested on: IGROV1 ovarian
[24] = tested on: K-562 leukemia
[25] = tested on: KM12 colon
[26] = tested on: KM20L2 colon
[27] = tested on: LOX IMVI melanoma
[28] = tested on: M14 melanoma
[29] = tested on: M19-MEL melanoma
[30] = tested on: MALME-3M melanoma
[31] = tested on: MCF7 breast
[32] = tested on: MDA-MB-231 breast
[33] = tested on: MDA-MB-435
[34] = tested on: MOLT-4 leukemia
[35] = tested on: NCI-H226 lung
[36] = tested on: NCI-H23 lung
[37] = tested on: NCI-H460 lung
[38] = tested on: NCI-H522 lung
[39] = tested on: NCI/ADR-RES ovarian
[40] = tested on: OVCAR-3 ovarian
[41] = tested on: OVCAR-4 ovarian
[42] = tested on: OVCAR-5 ovarian
[43] = tested on: OVCAR-8 ovarian
[44] = tested on: P388 leukemia
[45] = tested on: P388/ADR leukemia
[46] = tested on: PC-3 prostate
[47] = tested on: RPMI-8226 leukemia
[48] = tested on: RXF 393 renal
[49] = tested on: SF-268 CNS
[50] = tested on: SF-295 CNS
[51] = tested on: SF-539 CNS
[52] = tested on: SK-MEL-2 melanoma
[53] = tested on: SK-MEL-28 melanoma
[54] = tested on: SK-MEL-5 melanoma
[55] = tested on: SK-OV-3 ovarian
[56] = tested on: SN12C renal
[57] = tested on: SN12K1 renal
[58] = tested on: SNB-19 CNS
[59] = tested on: SNB-75 CNS
[60] = tested on: SNB-78 CNS
[61] = tested on: SR leukemia
[62] = tested on: SW-620 colon
[63] = tested on: T-47D breast
[64] = tested on: TK-10 renal
[65] = tested on: U251 CNS
[66] = tested on: UACC-257 melanoma
[67] = tested on: UACC-62 melanoma
[68] = tested on: UO-31 renal

In the case of CC(O)CCC(=O)c1ccoc1 (stereo not drawn), the TGI [1] is reported as > 10 mM, the TGI [2] is reported as 9.94 mM and the TGI [3] is reported as > 7.45 mM. For the same molecule, the TGI [4] was > 10 mM, the TGI [5] was > 10 mM and the TGI [6] was 3.93 mM. The TGI [7] was > 9.36 mM, the TGI [8] was > 8.25 mM and the TGI [9] was > 10 mM. The TGI [10] was > 9.67 mM, the TGI [11] was > 9.14 mM and the TGI [12] was > 10 mM. For the same molecule, the TGI [13] was > 9.74 mM, the TGI [14] was > 10 mM and the TGI [15] was > 8.75 mM. For the same molecule, the TGI [16] was > 10 mM, the TGI [17] was 7.89 mM and the TGI [18] was > 10 mM. The TGI [19] was > 10 mM, the TGI [20] was 8 mM and the TGI [21] was > 10 mM. The TGI [22] was > 10 mM, the TGI [23] was > 10 mM and the TGI [24] was > 10 mM. The TGI [25] was > 8.11 mM, the TGI [26] was > 10 mM and the TGI [27] was > 10 mM. For the same molecule, the TGI [28] was > 10 mM, the TGI [29] was > 10 mM and the TGI [30] was > 8.38 mM. The TGI [31] was > 10 mM, the TGI [32] was > 10 mM and the TGI [33] was > 10 mM. The TGI [34] was > 9.43 mM, the TGI [35] was > 10 mM and the TGI [36] was > 10 mM. The TGI [37] was > 10 mM, the TGI [38] was 8.27 mM and the TGI [39] was > 9.75 mM. For the same molecule, the TGI [40] was 9.96 mM, the TGI [41] was > 7.94 mM and the TGI [42] was > 10 mM. The TGI [43] was > 10 mM, the TGI [44] was > 10 mM and the TGI [45] was > 10 mM. For the same molecule, the TGI [46] was > 10 mM, the TGI [47] was 7.9 mM and the TGI [48] was > 8.31 mM. The TGI [49] was > 10 mM, the TGI [50] was > 10 mM and the TGI [51] was > 10 mM. For the same molecule, the TGI [52] was > 8.11 mM, the TGI [53] was > 8.38 mM and the TGI [54] was 8.03 mM. The TGI [55] was > 7.94 mM, the TGI [56] was 9.93 mM and the TGI [57] was > 10 mM. For the same molecule, the TGI [58] was > 10 mM, the TGI [59] was 9.65 mM and the TGI [60] was 9.99 mM. For the same molecule, the TGI [61] was > 10 mM, the TGI [62] was > 10 mM and the TGI [63] was > 10 mM. For the same molecule, the TGI [64] was > 10 mM, the TGI [65] was > 10 mM and the TGI [66] was > 10 mM. The TGI [67] was > 10 mM and the TGI [68] was 9.12 mM.
